These results are taken from ChEMBL document CHEMBL2069169, “Novel triazines as potent and selective phosphodiesterase 10A inhibitors” (Bioorg Med Chem Lett, 2012).

The structures appear in SMILES notation. Calls of active or inactive are those of the source. The rule behind the calls is not given here. Some results are limits rather than exact numbers.

One data set deals with Phosphodiesterase 3 (Homo sapiens, UniProt Q14432+Q13370). The experiment in a line: Inhibition of PDE3. It counts as protein assay.
A further data set has as its target Phosphodiesterase 4 (Homo sapiens, UniProt P27815+Q08499+Q07343+Q08493). The experiment in a line: Inhibition of PDE4. It counts as protein assay.
For data set [1], the target named is cGMP-specific 3',5'-cyclic phosphodiesterase (Canis lupus familiaris, UniProt O77746). Briefly: Inhibition of PDE5. More on the design: species or system Homo sapiens.
In the next data set the target is Phosphodiesterase 6. Briefly: Inhibition of PDE6. It counts as protein assay, Homo sapiens.
The species entered for data set [2] is Homo sapiens. Briefly: Selectivity ratio of IC50 PDE2 to IC50 for human recombinant PDE10A.
The target in data set [3] is cAMP and cAMP-inhibited cGMP 3',5'-cyclic phosphodiesterase 10A (Homo sapiens, UniProt Q9Y233). Briefly: Inhibition of human recombinant PDE10A-catalyzed cAMP hydrolysis.
cAMP and cAMP-inhibited cGMP 3',5'-cyclic phosphodiesterase 10A, sequence (Q9Y233 whole entry): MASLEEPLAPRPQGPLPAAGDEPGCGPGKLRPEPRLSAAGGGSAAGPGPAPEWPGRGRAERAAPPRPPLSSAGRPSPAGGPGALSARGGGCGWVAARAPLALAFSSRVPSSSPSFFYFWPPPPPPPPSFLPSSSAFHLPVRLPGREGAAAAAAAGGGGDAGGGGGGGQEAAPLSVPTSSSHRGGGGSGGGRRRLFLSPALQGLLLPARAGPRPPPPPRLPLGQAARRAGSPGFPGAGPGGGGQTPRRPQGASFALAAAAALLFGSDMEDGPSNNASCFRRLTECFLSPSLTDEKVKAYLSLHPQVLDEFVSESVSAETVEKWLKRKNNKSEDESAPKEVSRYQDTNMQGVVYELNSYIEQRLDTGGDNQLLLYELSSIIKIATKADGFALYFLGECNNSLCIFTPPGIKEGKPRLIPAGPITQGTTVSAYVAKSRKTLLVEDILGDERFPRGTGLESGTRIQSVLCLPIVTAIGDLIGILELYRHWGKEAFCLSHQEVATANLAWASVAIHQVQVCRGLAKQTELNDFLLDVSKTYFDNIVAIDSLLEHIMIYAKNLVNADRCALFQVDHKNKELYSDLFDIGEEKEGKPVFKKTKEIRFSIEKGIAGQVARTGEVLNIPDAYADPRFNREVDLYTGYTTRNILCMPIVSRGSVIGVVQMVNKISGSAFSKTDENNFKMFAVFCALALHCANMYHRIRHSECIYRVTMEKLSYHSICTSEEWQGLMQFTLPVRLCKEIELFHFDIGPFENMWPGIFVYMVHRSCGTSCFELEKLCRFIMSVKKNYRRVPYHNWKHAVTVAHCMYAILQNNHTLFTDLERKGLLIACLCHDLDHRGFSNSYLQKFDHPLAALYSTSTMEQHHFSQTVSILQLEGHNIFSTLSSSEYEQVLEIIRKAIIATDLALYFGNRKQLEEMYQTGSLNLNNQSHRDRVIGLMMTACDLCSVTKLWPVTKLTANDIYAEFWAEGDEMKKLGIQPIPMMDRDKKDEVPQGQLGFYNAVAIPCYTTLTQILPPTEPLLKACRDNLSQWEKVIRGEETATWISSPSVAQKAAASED
Data set [4] deals with cGMP-dependent 3',5'-cyclic phosphodiesterase (Homo sapiens, UniProt O00408). Briefly: Inhibition of PDE2.
cGMP-dependent 3',5'-cyclic phosphodiesterase, sequence (O00408 whole entry): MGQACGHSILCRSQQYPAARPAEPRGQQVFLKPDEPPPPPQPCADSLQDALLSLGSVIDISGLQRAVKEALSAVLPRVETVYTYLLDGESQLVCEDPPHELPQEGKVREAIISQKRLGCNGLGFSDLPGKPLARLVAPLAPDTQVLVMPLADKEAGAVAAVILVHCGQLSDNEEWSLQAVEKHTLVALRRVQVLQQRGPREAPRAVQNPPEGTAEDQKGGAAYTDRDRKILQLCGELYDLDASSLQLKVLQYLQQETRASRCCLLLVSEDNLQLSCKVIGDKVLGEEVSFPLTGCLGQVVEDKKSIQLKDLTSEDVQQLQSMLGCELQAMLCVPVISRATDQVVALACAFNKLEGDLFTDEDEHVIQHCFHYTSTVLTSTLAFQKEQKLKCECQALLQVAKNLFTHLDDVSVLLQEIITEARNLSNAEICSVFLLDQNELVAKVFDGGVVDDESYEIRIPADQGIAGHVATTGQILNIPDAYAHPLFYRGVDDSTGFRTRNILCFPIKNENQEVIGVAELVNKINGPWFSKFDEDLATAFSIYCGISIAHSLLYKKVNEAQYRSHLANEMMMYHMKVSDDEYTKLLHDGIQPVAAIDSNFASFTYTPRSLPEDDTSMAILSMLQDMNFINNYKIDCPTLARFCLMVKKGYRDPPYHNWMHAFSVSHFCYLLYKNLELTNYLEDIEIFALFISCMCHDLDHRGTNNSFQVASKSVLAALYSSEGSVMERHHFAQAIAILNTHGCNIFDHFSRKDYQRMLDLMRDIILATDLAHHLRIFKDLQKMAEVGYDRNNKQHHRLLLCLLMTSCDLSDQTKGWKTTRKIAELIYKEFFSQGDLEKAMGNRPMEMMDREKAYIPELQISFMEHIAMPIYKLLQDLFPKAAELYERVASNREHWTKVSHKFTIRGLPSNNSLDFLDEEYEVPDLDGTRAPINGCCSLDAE
Data set [5] is filed under the species Homo sapiens. Briefly: Selectivity ratio of IC50 PDE3 to IC50 for human recombinant PDE10A.
The species named for data set [6] is Homo sapiens. Briefly: Selectivity ratio of IC50 PDE4 to IC50 for human recombinant PDE10A.
The species entered for data set [7] is Homo sapiens. Briefly: Selectivity ratio of IC50 PDE5 to IC50 for human recombinant PDE10A.
Data set [8] is filed under the species Homo sapiens. Briefly: Selectivity ratio of IC50 PDE6 to IC50 for human recombinant PDE10A.
For data set [9], the species on record is Homo sapiens. The experiment in a line: Selectivity ratio of IC50 PDE1 to IC50 for human recombinant PDE10A.
Data set [10] is filed under the species Homo sapiens. The experiment in a line: Selectivity ratio of IC50 PDE7 to IC50 for human recombinant PDE10A.
Data set [11] is filed under the species Homo sapiens. The experiment in a line: Selectivity ratio of IC50 PDE8 to IC50 for human recombinant PDE10A.
Data set [12] is filed under the species Homo sapiens. The experiment in a line: Selectivity ratio of IC50 PDE9 to IC50 for human recombinant PDE10A.
The species entered for data set [13] is Homo sapiens. Briefly: Selectivity ratio of IC50 PDE11 to IC50 for human recombinant PDE10A.
A short description of data set [14]: Oral bioavailability in rat at 10 mg/kg. It counts as ADME, organism-based. Conditions: in vivo.
Data set [15] is described as follows: Elimination half life in rat at 2 mg/kg, iv and 10 mg/kg, po. The following applies: in vivo, read-out: beta t1/2 (converted). It counts as ADME, organism-based.
The nature of data set [16]: Clearance in rat at 2 mg/kg, iv and 10 mg/kg, po. In kind it is ADME, organism-based. Conditions: in vivo.
A short description of data set [17]: Volume of distribution at steady state in rat at 2 mg/kg, iv and 10 mg/kg, po. It counts as ADME, organism-based. Conditions: in vivo, read-out: Vdss.
Data set [18] is described as follows: AUC in rat brain at 2 mg/kg, iv and 10 mg/kg, po. It counts as ADME, organism-based.
A short description of data set [19]: AUC in rat plasma at 2 mg/kg, iv and 10 mg/kg, po. In kind it is ADME, organism-based.
The test system of data set [20] is Rattus norvegicus. The experiment in a line: Antipsychotic activity in po dosed rat assessed as reduction of MK801-induced hyperactivity. It counts as functional. The arrangement: Activity: scale not given: the % may be the effect or the level left. Conditions: for minimal effective dose: Rattus norvegicus, po, read-out: MED.
In data set [21] the test system is Rattus norvegicus. The experiment in a line: Antipsychotic activity in po dosed rat assessed as reduction of MK801-induced stereotyped sniffing. In kind it is functional. The arrangement: Activity: scale not given: the % may be the effect or the level left. The following applies: for minimal effective dose: Rattus norvegicus, po, read-out: MED.
Data set [22] concerns Rattus norvegicus. The experiment in a line: Antipsychotic activity in po dosed Sprague-Dawley rat assessed as reduction of conditioned avoidance response. In kind it is functional.
In data set [23] the test system is Rattus norvegicus. The experiment in a line: Antipsychotic activity in Sprague-Dawley rat assessed as reduction of conditioned avoidance response at 0.17 mg/kg, po. In kind it is functional, organism-based. The arrangement: dose 0.17 mg/kg.

One may read the IC50 as the point on the concentration scale where inhibition reaches its midpoint. `COc1cccc2c1nnc1c(C)nc(-c3ccccc3C)n12`: the concentration for half-maximal inhibition (IC50) was greater than 10000 nM on Phosphodiesterase 3, 176 nM against Phosphodiesterase 4, 3670 nM in data set [1] and 1980 nM on Phosphodiesterase 6. In addition, the Ratio IC50 in the data set filed under Homo sapiens [2] came out at 60.
Take `COc1ccnc2c1nnc1c(C)nc(-c3cccnc3C)n12`: the half-inhibitory concentration (IC50) is 12.4 nM in data set [3]; 974 nM in [4]; greater than 10000 nM at Phosphodiesterase 3; 6960 nM on Phosphodiesterase 4; greater than 5000 nM in [1]; greater than 5000 nM at Phosphodiesterase 6. The Ratio IC50 in the data set filed under Homo sapiens [2] was greater than 100; in the data set filed under Homo sapiens [5], greater than 100; in the data set listed under Homo sapiens [6] it was greater than 100; in the data set filed under Homo sapiens [7], greater than 100; in the data set filed under Homo sapiens [8], greater than 100; in the data set listed under Homo sapiens [9], greater than 500. The Ratio IC50 in the data set listed under Homo sapiens [10], in the data set listed under Homo sapiens [11], in the data set filed under Homo sapiens [12] and in the data set filed under Homo sapiens [13] was greater than 500 in each case.
Broadly, the bioavailability is the share of a dose that reaches the circulation, judged against a reference dose that is usually intravenous. The AUC is concentration integrated over time. Take `COc1cc(OC)c2nnc3c(C)nc(-c4cnccc4C)n3c2c1`: the half-maximal inhibitory concentration (IC50) at Phosphodiesterase 3 is greater than 10000 nM; on Phosphodiesterase 4, greater than 10000 nM; in [1] it was 5070 nM; at Phosphodiesterase 6 it was 1822 nM. In data set [14], the bioavailability stood at 100%. Besides, the half-life in data set [15] is 0.8 h. In addition, the clearance in [16] is 14 mL/min/kg. Also, the Vd in data set [17] is 0.5 L/kg. For the same compound, the figures for the AUC in [18] and in [19] were 3000 ng·h/mL and 8790 ng·h/mL, respectively. Further, the Activity is 79.9% in the data set on Rattus norvegicus [20] and 69.8% with Rattus norvegicus [21]. Further, the minimal effective dose with Rattus norvegicus [20] and in the data set on Rattus norvegicus [21] was 1 mg/kg throughout.
`COc1cc(OC)c2nnc3c(C)nc(-c4ccncc4C)n3c2c1`: the IC50 was greater than 10000 nM against Phosphodiesterase 3, greater than 10000 nM against Phosphodiesterase 4, 4950 nM in data set [1] and 1240 nM against Phosphodiesterase 6. Also, the Ratio IC50 in the data set listed under Homo sapiens [2] stood at 300. In addition, the bioavailability in data set [14] came to 100%. Besides, the half-life in [15] was 0.9 h. This compound returned a clearance in data set [16] of 13 mL/min/kg. Also, in data set [17], the Vd is 0.4 L/kg. For the same compound, the AUC in data set [18] was determined as 2780 ng·h/mL; in data set [19], 18700 ng·h/mL. Moreover, the Activity in the data set on Rattus norvegicus [20] is 71.7%; with Rattus norvegicus [21] it was 57.4%. Further, the minimal effective dose with Rattus norvegicus [20] and in the data set with Rattus norvegicus [21] was 0.5 mg/kg each time.
`COc1cc(OC)c2nnc3c(C)nc(-c4ccccc4Cl)n3c2c1`: the half-maximal inhibitory concentration (IC50) in data set [4] is 30.3 nM; against Phosphodiesterase 3 it was greater than 5000 nM; at Phosphodiesterase 4, 1910 nM; in data set [1], 436 nM; at Phosphodiesterase 6, 73.15 nM. The values for the Activity in the data set on Rattus norvegicus [20] and in the data set on Rattus norvegicus [21] were 70.3% and 55.7%, respectively. The minimal effective dose with Rattus norvegicus [20] and with Rattus norvegicus [21] was 0.5 mg/kg in each case.
On to `COc1ccnc2c1nnc1c(C)nc(-c3ccncc3C)n12`, for which the IC50 is greater than 10000 nM at Phosphodiesterase 3, 3680 nM against Phosphodiesterase 4, greater than 10000 nM in data set [1] and greater than 10000 nM against Phosphodiesterase 6. Besides, the Ratio IC50 in the data set listed under Homo sapiens [2], in the data set filed under Homo sapiens [5], in the data set listed under Homo sapiens [6], in the data set filed under Homo sapiens [7] and in the data set filed under Homo sapiens [8] was greater than 100 each time. For the same compound, the figures for the Activity with Rattus norvegicus [20] and with Rattus norvegicus [21] were 55.4% and 34.1%, respectively. In addition, the minimal effective dose in the data set with Rattus norvegicus [20] and in the data set on Rattus norvegicus [21] was 2.5 mg/kg in each case.
As for `COc1cc(C(F)(F)F)cc2c1nnc1c(C)nc(-c3ccncc3C)n12`, the IC50 is greater than 10000 nM at Phosphodiesterase 3, greater than 10000 nM against Phosphodiesterase 4, 2290 nM in data set [1] and 1790 nM against Phosphodiesterase 6. In data set [14], the bioavailability was determined as 53%. Besides, the half-life in data set [15] was 4.5 h. This compound came in with a clearance in data set [16] of 5 mL/min/kg. For the same compound, the Vd in [17] came to 1.3 L/kg. In addition, the values for the AUC in data set [18] and in data set [19] were 622 ng·h/mL and 1600 ng·h/mL, respectively. Moreover, the Activity in the data set on Rattus norvegicus [20] turned out to be 40.5%; with Rattus norvegicus [21] it was 18.4%. In addition, the minimal effective dose with Rattus norvegicus [20] and in the data set with Rattus norvegicus [21] was 0.1 mg/kg throughout. In the data set on Rattus norvegicus [22], the ID30 was 0.123 mg/kg. The ED50 in the data set with Rattus norvegicus [22] (Rattus norvegicus, Sprague-Dawley, po, read-out: ID50 (the source's name)) was found to be 0.204 mg/kg. The outcome with Rattus norvegicus [23] was Active.
Regarding `COc1cc(F)c2nnc3c(C)nc(-c4ccccc4OC)n3c2c1`, the 50% inhibitory concentration (IC50) (at Phosphodiesterase 3; against Phosphodiesterase 4; in [1]; against Phosphodiesterase 6) was greater than 1000 nM throughout. Further, the Ratio IC50 in the data set filed under Homo sapiens [2] is greater than 400.
On to `COc1cc(OC)c2nnc3c(C)nc(-c4cccnc4C)n3c2c1`, for which the 50% inhibitory concentration (IC50) against Phosphodiesterase 3 was greater than 10000 nM; on Phosphodiesterase 4, greater than 10000 nM; in [1], 1430 nM; on Phosphodiesterase 6, 493 nM. This compound also registered a bioavailability in data set [14] of 100%. Also, the half-life in [15] was 2 h. The compound also returned a clearance in data set [16] of 4 mL/min/kg. The Vd in data set [17] amounted to 0.4 L/kg. Further, the AUC in data set [18] was 6590 ng·h/mL; in data set [19], 21300 ng·h/mL. The Activity in the data set with Rattus norvegicus [20] is 90.2%; with Rattus norvegicus [21], 71.3%. Besides, the minimal effective dose with Rattus norvegicus [20] and in the data set with Rattus norvegicus [21] was 0.25 mg/kg in each case.
